From PubChem BioAssay AID1963426 (Molecular Pharmacology Branch, DTP, NCI, 2024)
Several values for one entry are separate records, joined by “and”; a condition that tells them apart may be missing. Equal values may be shown once.

Tested on: 186277-243-T-J2-PDC complex spheroid growth, % test/control
Test: Anticancer human tumor 186277-243-T-J2-PDC patient-derived colon adenocarcinoma cell line growth inhibition [Asc]
Conditions: for viability, T/C: stronger effect = lower value
Summary of the method: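 Complex solid-tumor spheroids incorporating human endothelial and mesenchymal stem cells received single agents or combinations over half-log dilution ranges anchored to clinical Cmax.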

[1] = curve of first compound, second compound 0.1 µM
[2] = curve of first compound, second compound 0.316 µM
[3] = curve of first compound, second compound 1 µM
[4] = curve of first compound, second compound 3.16 µM
[5] = curve of first compound, second compound 10 µM
[6] = second compound 0.1 µM, first compound 0.0316 µM
[7] = second compound 0.1 µM, first compound 0.1 µM
[8] = second compound 0.1 µM, first compound 0.316 µM
[9] = second compound 0.1 µM, first compound 1 µM
[10] = second compound 0.1 µM, first compound 3.16 µM
[11] = second compound 0.1 µM, first compound 10 µM
[12] = second compound 0.316 µM, first compound 0.0316 µM
[13] = second compound 0.316 µM, first compound 0.1 µM
[14] = second compound 0.316 µM, first compound 0.316 µM
[15] = second compound 0.316 µM, first compound 1 µM
[16] = second compound 0.316 µM, first compound 3.16 µM
[17] = second compound 0.316 µM, first compound 10 µM
[18] = second compound 1 µM, first compound 0.0316 µM
[19] = second compound 1 µM, first compound 0.1 µM
[20] = second compound 1 µM, first compound 0.316 µM
[21] = second compound 1 µM, first compound 1 µM
[22] = second compound 1 µM, first compound 3.16 µM
[23] = second compound 1 µM, first compound 10 µM
[24] = second compound 3.16 µM, first compound 0.0316 µM
[25] = second compound 3.16 µM, first compound 0.1 µM
[26] = second compound 3.16 µM, first compound 0.316 µM
[27] = second compound 3.16 µM, first compound 1 µM
[28] = second compound 3.16 µM, first compound 3.16 µM
[29] = second compound 3.16 µM, first compound 10 µM
[30] = second compound 10 µM, first compound 0.0316 µM
[31] = second compound 10 µM, first compound 0.1 µM
[32] = second compound 10 µM, first compound 0.316 µM
[33] = second compound 10 µM, first compound 1 µM
[34] = second compound 10 µM, first compound 3.16 µM
[35] = second compound 10 µM, first compound 10 µM
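Note: spheroids exposed to agents for 7 days.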
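Throughout, for viability, T/C: 100% = DMSO vehicle control wells.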

O=C(c1ccc(F)c(F)c1Nc1ccc(I)cc1F)N1CC(O)([C@@H]2CCCCN2)C1 + CCN1C(C(=O)NC23CCC(C(=O)O)(CC2)CC3)C(c2cccc(Cl)c2F)C2(C(=O)Nc3cc(Cl)ccc32)C12CCCCC2
IC50 (curve of first compound, second compound 0.03 µM): 72.8 nM
IC50 (curve of first compound, second compound 0.0949 µM): 54.1 nM
IC50 (curve of first compound, second compound 0.3 µM): 14.1 nM
IC50 (curve of first compound, second compound 0.949 µM): 4.49 nM
IC50 (curve of first compound, second compound 3 µM): < 3.16 nM
viability, T/C (second compound 0.03 µM, first compound 0.00316 µM): 119%
viability, T/C (second compound 0.03 µM, first compound 0.01 µM): 105%
viability, T/C (second compound 0.03 µM, first compound 0.0316 µM): 96.8%
viability, T/C (second compound 0.03 µM, first compound 0.1 µM): 32.2%
viability, T/C (second compound 0.03 µM, first compound 0.316 µM): 6.54%
viability, T/C (second compound 0.03 µM, first compound 1 µM): 3.48%
viability, T/C (second compound 0.0949 µM, first compound 0.00316 µM): 90%
viability, T/C (second compound 0.0949 µM, first compound 0.01 µM): 96%
viability, T/C (second compound 0.0949 µM, first compound 0.0316 µM): 75.8%
viability, T/C (second compound 0.0949 µM, first compound 0.1 µM): 20%
viability, T/C (second compound 0.0949 µM, first compound 0.316 µM): 3.92%
viability, T/C (second compound 0.0949 µM, first compound 1 µM): 1.51%
viability, T/C (second compound 0.3 µM, first compound 0.00316 µM): 66.6%
viability, T/C (second compound 0.3 µM, first compound 0.01 µM): 61.9%
viability, T/C (second compound 0.3 µM, first compound 0.0316 µM): 22.6%
viability, T/C (second compound 0.3 µM, first compound 0.1 µM): 5.9%
viability, T/C (second compound 0.3 µM, first compound 0.316 µM): 1.93%
viability, T/C (second compound 0.3 µM, first compound 1 µM): 1.43%
viability, T/C (second compound 0.949 µM, first compound 0.00316 µM): 52.2%
viability, T/C (second compound 0.949 µM, first compound 0.01 µM): 45%
viability, T/C (second compound 0.949 µM, first compound 0.0316 µM): 19%
viability, T/C (second compound 0.949 µM, first compound 0.1 µM): 5.17%
viability, T/C (second compound 0.949 µM, first compound 0.316 µM): 4.44%
viability, T/C (second compound 0.949 µM, first compound 1 µM): 2.55%
viability, T/C (second compound 3 µM, first compound 0.00316 µM): 31.5%
viability, T/C (second compound 3 µM, first compound 0.01 µM): 26.7%
viability, T/C (second compound 3 µM, first compound 0.0316 µM): 11.9%
viability, T/C (second compound 3 µM, first compound 0.1 µM): 4.93%
viability, T/C (second compound 3 µM, first compound 0.316 µM): 3.83%
viability, T/C (second compound 3 µM, first compound 1 µM): 3.31%

NC(=O)C(=Cn1cnc(-c2cc(C(F)(F)F)cc(C(F)(F)F)c2)n1)c1cncnc1
viability, T/C (compound 0.000949 µM): 99.3% and 89.8% and 97.7%
viability, T/C (compound 0.003 µM): 80.2% and 78.8% and 94.8%
viability, T/C (compound 0.00949 µM): 96.9% and 100% and 103%
viability, T/C (compound 0.03 µM): 96.2% and 77.8% and 106%
viability, T/C (compound 0.0949 µM): 81.6% and 71.7% and 101%
viability, T/C (compound 0.3 µM): 12.6% and 11.8% and 30.5%
IC50 (curve of compound): 161 nM and 141 nM and 218 nM

C=CC(=O)N1CCN(c2nc(=O)n(-c3c(C)ccnc3C(C)C)c3nc(-c4c(O)cccc4F)c(F)cc23)C(C)C1 (configuration not stated) + Cc1c(S(C)(=O)=O)c(-c2cc(F)cc(N3CCN(c4ccc(NS(=O)(=O)c5ccc(NC(CCN6CCC(C(=O)OCCCP(=O)(O)O)CC6)CSc6ccccc6)c(S(=O)(=O)C(F)(F)F)c5)cc4)CC3)c2)c(-c2ccc(Cl)cc2)n1C(C)C
IC50 [1]: > 10000 nM
IC50 [2]: > 10000 nM
IC50 [3]: > 10000 nM
IC50 [4]: > 10000 nM
IC50 [5]: > 10000 nM
viability, T/C [6]: 120%
viability, T/C [7]: 105%
viability, T/C [8]: 105%
viability, T/C [9]: 108%
viability, T/C [10]: 116%
viability, T/C [11]: 113%
viability, T/C [12]: 111%
viability, T/C [13]: 104%
viability, T/C [14]: 104%
viability, T/C [15]: 104%
viability, T/C [16]: 119%
viability, T/C [17]: 116%
viability, T/C [18]: 128%
viability, T/C [19]: 115%
viability, T/C [20]: 100%
viability, T/C [21]: 116%
viability, T/C [22]: 119%
viability, T/C [23]: 119%
viability, T/C [24]: 105%
viability, T/C [25]: 123%
viability, T/C [26]: 115%
viability, T/C [27]: 111%
viability, T/C [28]: 116%
viability, T/C [29]: 116%
viability, T/C [30]: 102%
viability, T/C [31]: 109%
viability, T/C [32]: 102%
viability, T/C [33]: 119%
viability, T/C [34]: 104%
viability, T/C [35]: 110%

C=C(F)C(=O)N1CCN(c2nc(OCC3CCCN3C)nc3c2CCN(c2cccc4cccc(Cl)c24)C3)CC1CC#N (configuration not stated) + Cc1c(S(C)(=O)=O)c(-c2cc(F)cc(N3CCN(c4ccc(NS(=O)(=O)c5ccc(NC(CCN6CCC(C(=O)OCCCP(=O)(O)O)CC6)CSc6ccccc6)c(S(=O)(=O)C(F)(F)F)c5)cc4)CC3)c2)c(-c2ccc(Cl)cc2)n1C(C)C
IC50 [1]: 5550 nM
IC50 [2]: 4400 nM
IC50 [3]: 2590 nM
IC50 [4]: 2180 nM
IC50 [5]: 2370 nM
viability, T/C [6]: 109%
viability, T/C [7]: 111%
viability, T/C [8]: 110%
viability, T/C [9]: 110%
viability, T/C [10]: 97.2%
viability, T/C [11]: 0.54%
viability, T/C [12]: 106%
viability, T/C [13]: 109%
viability, T/C [14]: 108%
viability, T/C [15]: 111%
viability, T/C [16]: 70%
viability, T/C [17]: 0.32%
viability, T/C [18]: 115%
viability, T/C [19]: 119%
viability, T/C [20]: 107%
viability, T/C [21]: 124%
viability, T/C [22]: 36.1%
viability, T/C [23]: 0.51%
viability, T/C [24]: 105%
viability, T/C [25]: 108%
viability, T/C [26]: 112%
viability, T/C [27]: 104%
viability, T/C [28]: 24.2%
viability, T/C [29]: 0.16%
viability, T/C [30]: 120%
viability, T/C [31]: 106%
viability, T/C [32]: 116%
viability, T/C [33]: 107%
viability, T/C [34]: 31.2%
viability, T/C [35]: 0.25%

CNC(C)C(=O)NC1CN(S(=O)(=O)c2cccc(S(=O)(=O)N3CCC4CCC(C(=O)NC(c5ccccc5)c5ccccc5)N4C(=O)C(NC(=O)C(C)NC)C3)c2)CCC2CCC(C(=O)NC(c3ccccc3)c3ccccc3)N2C1=O (configuration not stated) + Cc1c(S(C)(=O)=O)c(-c2cc(F)cc(N3CCN(c4ccc(NS(=O)(=O)c5ccc(NC(CCN6CCC(C(=O)OCCCP(=O)(O)O)CC6)CSc6ccccc6)c(S(=O)(=O)C(F)(F)F)c5)cc4)CC3)c2)c(-c2ccc(Cl)cc2)n1C(C)C
IC50 [1]: > 1000 nM
IC50 [2]: > 1000 nM
IC50 [3]: > 1000 nM
IC50 [4]: > 1000 nM
IC50 [5]: > 1000 nM
viability, T/C (second compound 0.1 µM, first compound 0.00316 µM): 99.7%
viability, T/C (second compound 0.1 µM, first compound 0.01 µM): 108%
viability, T/C [6]: 111%
viability, T/C [7]: 106%
viability, T/C [8]: 101%
viability, T/C [9]: 110%
viability, T/C (second compound 0.316 µM, first compound 0.00316 µM): 102%
viability, T/C (second compound 0.316 µM, first compound 0.01 µM): 104%
viability, T/C [12]: 102%
viability, T/C [13]: 105%
viability, T/C [14]: 108%
viability, T/C [15]: 110%
viability, T/C (second compound 1 µM, first compound 0.00316 µM): 123%
viability, T/C (second compound 1 µM, first compound 0.01 µM): 114%
viability, T/C [18]: 101%
viability, T/C [19]: 110%
viability, T/C [20]: 110%
viability, T/C [21]: 99.5%
viability, T/C (second compound 3.16 µM, first compound 0.00316 µM): 105%
viability, T/C (second compound 3.16 µM, first compound 0.01 µM): 109%
viability, T/C [24]: 93.6%
viability, T/C [25]: 109%
viability, T/C [26]: 110%
viability, T/C [27]: 104%
viability, T/C (second compound 10 µM, first compound 0.00316 µM): 93.6%
viability, T/C (second compound 10 µM, first compound 0.01 µM): 103%
viability, T/C [30]: 102%
viability, T/C [31]: 109%
viability, T/C [32]: 101%
viability, T/C [33]: 107%
